Measurements from US9895352B2, “Indolinone compounds and uses thereof” (Oncternal Therapeutics, Inc., priority 2014, dated 2018).
Values joined by “and” are separate entries in the source; they are usually repeats but may differ in a detail not shown here. Identical values can stand only once. Like-named read-outs stand apart in the source and are kept apart here.

What was measured:
[1] = tested on: SKES cells (Ewing Sarcoma cell line); assay: CCK-8 tetrazolium tumor cell growth inhibition, SKES; format: cell-based; settings: Homo sapiens, 72 h, SKES cells, 3 days with compound, CCK-8 (TABLE 3)
Description: (§1) A modified tetrazolium salt assay using the CCK-8 kit (Sigma-Aldrich; St Louis, Mo.) was used to measure the inhibition of human tumor cell growth. Tumor cells (5000-7500 per well) were added to 96 well plates and allowed to attach for 4-5 hours. Compounds were serially diluted and added in triplicate at a concentration of 0.02 to 5 μM. DMSO was included as a vehicle control. Cells were incubated in the presence of compound for 3 days. After incubation CCK-8 reagent was added to each well and incubated for 2-4 hours. Viable cells were quantitated spectrophotometrically at a wavelength of 450 nm. Percent viability of each sample was calculated from the A450 values as follows: % viability=(A450 nm sample/A450 nm DMSO-treated cells×100). […] IC50 activities of particular compounds were determined using SKES cells (Ewing Sarcoma cell line).

[2] = Metabolic stability, half-life and clearance in human hepatocytes; format: in vitro ADME; settings: for % remaining / half-life: Human hepatocytes; for CLhep: human hepatocytes, hepatic clearance where blood flow = 20 mL/min/kg
Description: (§2) Half-life and clearance rates for certain compounds were assayed with human liver microsomes and human hepatocytes. […] At each time point (0, 5, 15, 30, 60, 90 min) the reactions were stopped, vortexed and centrifuged. Supernatents were frozen until LC/MS/MS analysis. The results for human liver microsomes and human hepactocytes are summarized in TABLE 9, and TABLE 10, respectively. Certain compounds were assayed with human liver microsomes (HLM) and human hepatocytes, and metabolites were detected. Briefly, metabolic stability was tested at one TA concentration (e.g., 1 μM) in duplicate. […] Incubations were saved and used for metabolite identification using LC/MS/MS. […] The slope of the linear regression from log percentage remaining versus incubation time relationships (−k) was determined by linear regression fitting. From the individual log percentage remaining time profiles, the mean half-life and intrinsic clearance were reported. UHPLC-HRMS or UHPLC-MS/MS experiment was performed on the authentic test articles to check for possible common fragment ions. […] The metabolites were summarized based on their mass spectrometry peak areas.

[3] = Half-life in dog hepatocytes; format: in vitro ADME; settings: for half-life: read-out: Half life of cmpds
Description: (§3) In another study, metabolism of compounds in hepatocytes from various species was examined. Hepatocytes were contacted with a compound, and the half-life of the compound was determined.

[4] = Metabolic stability, half-life and clearance in human liver microsomes; format: in vitro ADME; settings: for CLhep: hepatic clearance where blood flow = 20 mL/min/kg
Description: as §2

[5] = Half-life in human hepatocytes; format: in vitro ADME; settings: read-out: Half life of cmpds
Description: as §3

[6] = Half-life in rat hepatocytes; format: in vitro ADME; settings: for half-life: read-out: Half life of cmpds
Description: as §3

[7] = Half-life in mouse hepatocytes; format: in vitro ADME; settings: read-out: Half life of cmpds
Description: as §3

A4573 = assay: CCK-8 tetrazolium tumor cell growth inhibition, A4573; format: cell-based; settings: Homo sapiens; A4573, ES, EWS-FLI1 Type 3
Description: as §1

LNCap = assay: CCK-8 tetrazolium tumor cell growth inhibition, LNCap; format: cell-based; settings: Homo sapiens, Prostate, rearranged ETV1
Description: as §1

[8] = Pharmacokinetics, continuous infusion study in dog; format: in vivo; settings: for Vd / clearance / half-life: plasma, iv
Description: (§4) Certain pharmacokinetics parameters were determined for certain compounds in vivo for intravenous and oral administration. Briefly, compounds were formulated and administered using IV bolus, continuous IV infusion or oral administration. Blood was collected at multiple time points over 24 hours and processed into plasma. Plasma was analyses for parent using LC/MS/MS. Certain parameters for certain compounds were obtained in duplicate.

PC3 = assay: CCK-8 tetrazolium tumor cell growth inhibition, PC3; format: cell-based; settings: Homo sapiens, PC-3; PC3, Prostate, no ETS rearrangement
Description: as §1

MDA-MB-231 = assay: CCK-8 tetrazolium tumor cell growth inhibition, MDA-MB-231; format: cell-based; settings: Homo sapiens; MDA-MB-231, Breast, increased ETV1
Description: as §1

[9] = Pharmacokinetics after IV and oral administration; format: in vivo; settings: BALB/c mice or Sprague Dawley rats; for Cmax / half-life / Tmax / bioavailability: plasma; for Tmax: read-out: Tmax
Description: as §4

PANC1 = assay: CCK-8 tetrazolium tumor cell growth inhibition, PANC1; format: cell-based; settings: Homo sapiens, PANC-1; PANC1, Pancreas, no ETS rearrangement
Description: as §1

in vitro [10] = settings: mouse
[11] = not given; remark: listed apart in the source
[12] = not given; remark: listed apart in the source
in vitro [13] = settings: rat
BxPC3 = assay: CCK-8 tetrazolium tumor cell growth inhibition, BxPC3; format: cell-based; settings: Homo sapiens, BXPC-3; BxPC3, Pancreas, increased FLI1
Description: as §1

A4573 tumor cells [14] = assay: A4573 xenograft study in mice; format: in vivo; settings: A4573 tumors, 100 mg/kg bid oral, relative to vehicle control
[15] = not given; remark: listed apart in the source
A4573 tumor cells [16] = assay: similar rat xenograft study; format: in vivo; settings: compared to the vehicle control
[17] = Pharmacokinetics, continuous infusion study in rat; format: in vivo; settings: for Vd / clearance / half-life: plasma, iv
Description: as §4

TC71 = assay: CCK-8 tetrazolium tumor cell growth inhibition, TC71; format: cell-based; settings: Homo sapiens, TC-71; TC71, ES, EWS-FLI1 Type 1
Description: as §1

MCF7 = assay: CCK-8 tetrazolium tumor cell growth inhibition, MCF7; format: cell-based; settings: Homo sapiens; MCF7, Breast, no ETS rearrangement
Description: as §1

[18] = iv, 5 mg/kg, 5 mg/kg IV, captisol
[19] = iv, 10 mg/kg, 10 mg/kg IV, captisol
[20] = po, 25 mg/kg, 25 mg/kg po, labrasol:tetraglycol:water 72:8:20
[21] = po, 100 mg/kg, 100 mg/kg po, PEG-400/tween
[22] = po, 100 mg/kg, 100 mg/kg po, labrasol/tetraglycol
[23] = dog liver microsome, no cofactor, 60 min
[24] = human liver microsome, no cofactor, 60 min
[25] = mouse liver microsome, no cofactor, 60 min
[26] = rat liver microsome, no cofactor, 60 min

SMILES: COc1ccc(C(=O)CC2(O)C(=O)Nc3c(Cl)ccc(Cl)c32)cc1 (racemic) [Cmpd 1, 4,7-Dichloro-3-hydroxy-3-[2-(4-methoxyphenyl-2-oxoethyl)]-1,3-dihydroindol-2-one]
- IC50 [1]: < 5 µM
- % remaining [2]: 48%
- half-life [2]: 226 min
- CLhep [2]: 8.7 mL/min/kg
- half-life [3]: 16.7 min
- % remaining [4]: 5%
- half-life [4]: 10.3 min
- CLhep [4]: 17.28 mL/min/kg
- half-life [5]: 45.5 min
- half-life [6]: 14.2 min
- half-life [7]: 30.9 min

SMILES: CNc1ccc(C(=O)CC2(O)C(=O)Nc3c(Cl)ccc(Cl)c32)cc1 (racemic) [Cmpd 7, 4,7-dichloro-3-hydroxy-3-[2-[4-(methylamino)phenyl]-2-oxoethyl]-1H-indol-2-one]
- % remaining [2]: 100%
- half-life [2]: > 240 min
- CLhep [2]: <8.7 mL/min/kg
- % remaining [4]: 49%
- half-life [4]: > 45 min
- CLhep [4]: ~11.54 mL/min/kg

SMILES: O=C(CC1(O)C(=O)Nc2c(Cl)ccc(Cl)c21)c1ccc(C2CC2)cc1 (single isomer, unassigned) [Cmpd 14, 4,7-Dichloro-3-(2-(4-cyclopropylphenyl)-2-oxoethyl)-3-hydroxyindolin-2-one]
- IC50 (A4573): < 5 µM
- IC50 (LNCap): < 5 µM
- Css(3-24 h) ([8]; 10 mg/kg/day): 210 ng/mL and 0.56 μM
- MRT24-inf ([8]; 10 mg/kg/day): 150 min
- Css(3-24 h) ([8]; 25 mg/kg/day): 466 ng/mL and 1.24 μM
- MRT24-inf ([8]; 25 mg/kg/day): 132 min
- Vd ([8]; 10 mg/kg/day): 5.64 L/kg
- clearance ([8]; 10 mg/kg/day): 33.6 mL/min/kg
- half-life ([8]; 10 mg/kg/day): 114 min
- Vd ([8]; 25 mg/kg/day): 5.66 L/kg
- clearance ([8]; 25 mg/kg/day): 37.3 mL/min/kg
- half-life ([8]; 25 mg/kg/day): 102 min
- IC50 (PC3): > 5 µM
- IC50 (MDA-MB-231): < 5 µM
- AUC ([9]; 5 mg/kg IV, captisol): 4131 h * (ng/mL)
- AUC ([9]; 10 mg/kg IV, captisol): 6059 h * (ng/mL)
- AUC ([9]; 25 mg/kg po, labrasol:tetraglycol:water 72:8:20): 13152 h * (ng/mL)
- AUC ([9]; 100 mg/kg po, PEG-400/tween): 92219 h * (ng/mL)
- AUC ([9]; 100 mg/kg po, labrasol/tetraglycol): 146167 h * (ng/mL)
- Cmax [9, 18]: 10900 ng/mL
- half-life [9, 18]: 48 min
- Tmax [9, 18]: 1.8 min
- Cmax [9, 19]: 39800 ng/mL
- half-life [9, 19]: 85.8 min
- Tmax [9, 19]: 1.8 min
- Cmax [9, 20]: 2770 ng/mL
- bioavailability [9, 20]: 64%
- half-life [9, 20]: 186 min
- Tmax [9, 20]: 60 min
- Cmax [9, 21]: 26000 ng/mL
- bioavailability [9, 21]: 100%
- half-life [9, 21]: 230 min
- Tmax [9, 21]: 0 min
- Cmax [9, 22]: 33000 ng/mL
- bioavailability [9, 22]: 100%
- half-life [9, 22]: 463 min
- Tmax [9, 22]: 120 min
- IC50 (PANC1): > 5 µM
- half-life (in vitro [10]; microsomes): 23.1 min
- Remaining (NCF = 60 min) [23]: 97.1%
- half-life [3]: 20.3 min
- Remaining (NCF = 60 min) [11, 24]: 104.5%
- Remaining (NCF = 60 min) [12, 25]: 102.0%
- half-life (in vitro [13]; microsomes): 2.8 min
- half-life [5]: 75.9 min
- IC50 (BxPC3): < 5 µM
- half-life [6]: 27.4 min
- tumor growth inhibition (TGI) (A4573 tumor cells [14]): 57%
- Remaining (NCF = 60 min) [15, 26]: 97.6%
- tumor growth inhibition (TGI) (A4573 tumor cells [16]): 53%
- half-life [7]: 62.8 min
- Css(3-24 h) ([17]; 24 mg/kg/day): 344 ng/mL and 0.91 μM
- MRT24-inf ([17]; 24 mg/kg/day): 66.6 min
- Css(3-24 h) ([17]; 96 mg/kg/day): 1376 ng/mL and 3.7 μM
- MRT24-inf ([17]; 96 mg/kg/day): 104 min
- Vd ([17]; 24 mg/kg/day): 3.46 L/kg
- clearance ([17]; 24 mg/kg/day): 48.7 mL/min/kg
- half-life ([17]; 24 mg/kg/day): 49.4 min
- Vd ([17]; 96 mg/kg/day): 4.23 L/kg
- clearance ([17]; 96 mg/kg/day): 49.6 mL/min/kg
- half-life ([17]; 96 mg/kg/day): 60 min
- IC50 (TC71): < 5 µM
- IC50 (MCF7): > 5 µM

SMILES: O=C(CC1(O)C(=O)Nc2c(Cl)ccc(Cl)c21)c1ccc(C2CC2)c(F)c1 (single isomer, unassigned) [Cmpd 37, 4,7-Dichloro-3-(2-(4-cyclopropyl-3-fluorophenyl)-2-oxoethyl)-3-hydroxyindolin-2-one]
- half-life (in vitro [10]; liver microsomes): 20.7 min
- Remaining (NCF = 60 min) [11, 24]: 103.4%
- half-life (in vitro [13]; liver microsomes): 3.5 min

SMILES: O=C(CC1(O)C(=O)Nc2c(Cl)ccc(Cl)c21)c1ccc(C2CC2)cc1F (single isomer, unassigned) [Cmpd 39, 4,7-Dichloro-3-(2-(4-cyclopropyl-2-fluorophenyl)-2-oxoethyl)-3-hydroxyindolin-2-one]
- Remaining (NCF = 60 min) [11, 24]: 100.0%
- half-life (in vitro [13]; liver microsomes): 3 min

SMILES: CCOc1ccc2ccc(=O)oc2c1 [7-Ethoxycoumarin, reference compound]
- Half life of cmpds [3]: 9.14 min
- half-life [5]: 45.3 min
- half-life [6]: 38.2 min
- half-life [7]: 37.9 min

SMILES: O=c1ccc2ccc(O)cc2o1 [7-Hydroxycoumarin, reference compound]
- half-life [3]: 9.38 min
- half-life [5]: 20.8 min
- Half life of cmpds [6]: 12.41 min
- half-life [7]: 15.8 min

SMILES: O=C(O)Cc1ccccc1Nc1c(Cl)cccc1Cl [Diclofenac, reference compound]
- half-life (in vitro [10]; microsomes): 39.2 min
- Remaining (NCF = 60 min) (dog, microsomes, 1 h): 89.6%
- Remaining (NCF = 60 min) ([11]; human, microsomes, 1 h): 77.8%
- Remaining (NCF = 60 min) ([12]; mouse, microsomes, 1 h): 88.1%
- Remaining (NCF = 60 min) ([15]; rat, microsomes, 1 h): 94.1%

SMILES: C[C@]12CC[C@H]3[C@@H](CCC4=CC(=O)CC[C@@]43C)[C@@H]1CC[C@@H]2O [Testosterone, reference compound]
- half-life (in vitro [10]; microsomes): 3.3 min
- Remaining (NCF = 60 min) [23]: 91.0%
- Remaining (NCF = 60 min) [11, 24]: 88.1%
- Remaining (NCF = 60 min) [12, 25]: 83.6%
- Remaining (NCF = 60 min) [15, 26]: 87.3%
